According to the NIST ThermoML archive (doi:10.1021/acs.jced.6b00750):

Test: xn = mol fraction of the nth substance listed
Details: Liquid; for mass density: Vibrating wire densiometer; for viscosity: Vibrating wire viscometry

CCCCCCCCCCCCCCCC [hexadecane] + O=C=O
Details	mass density [kg/m3]	viscosity [mPa·s]
298.14 K, 21810 kPa, x2 = 0.727	822.6	0.786
298.14 K, 22010 kPa, x2 = 0.727	822.8	0.787
298.14 K, 31030 kPa, x2 = 0.727	831.7	0.861
298.14 K, 41130 kPa, x2 = 0.727	840.7	0.943
298.16 K, 10920 kPa, x2 = 0.069	776.3	3.057
298.16 K, 11130 kPa, x2 = 0.069	776.5	3.075
298.16 K, 21440 kPa, x2 = 0.069	782.8	3.474
298.16 K, 30250 kPa, x2 = 0.069	787.6	3.87
298.18 K, 10440 kPa, x2 = 0.5877	802.3	1.003
298.18 K, 10670 kPa, x2 = 0.5877	802.7	0.998
298.18 K, 20560 kPa, x2 = 0.5877	811.8	1.107
298.18 K, 30070 kPa, x2 = 0.5877	819.7	1.219
298.18 K, 40380 kPa, x2 = 0.5877	827.4	1.344
323.12 K, 21230 kPa, x2 = 0.727	796.3	0.565
323.12 K, 21410 kPa, x2 = 0.727	796.3	0.565
323.12 K, 40330 kPa, x2 = 0.727	817.3	0.679
323.12 K, 60540 kPa, x2 = 0.727	835.2	0.806
323.12 K, 80280 kPa, x2 = 0.727	850.1	0.93
323.12 K, 100230 kPa, x2 = 0.727	863.2	1.064
323.12 K, 119920 kPa, x2 = 0.727	874.7	1.204
323.15 K, 10410 kPa, x2 = 0.069	759.1	1.83
323.15 K, 10420 kPa, x2 = 0.069	759.2	1.827
323.15 K, 10630 kPa, x2 = 0.5877	779	0.704
323.15 K, 10860 kPa, x2 = 0.5877	779.5	0.703
323.15 K, 20230 kPa, x2 = 0.069	765.7	2.061
323.15 K, 20850 kPa, x2 = 0.5877	790.2	0.786
323.15 K, 40110 kPa, x2 = 0.5877	807.6	0.947
323.15 K, 40860 kPa, x2 = 0.069	778.3	2.56
323.15 K, 60100 kPa, x2 = 0.5877	822.7	1.122
323.15 K, 60910 kPa, x2 = 0.069	788.7	3.13
323.15 K, 80840 kPa, x2 = 0.069	798.2	3.755
323.15 K, 99870 kPa, x2 = 0.069	806	4.474
373.08 K, 10380 kPa, x2 = 0.069	726.3	0.927
373.08 K, 12120 kPa, x2 = 0.069	728	0.947
373.08 K, 21470 kPa, x2 = 0.069	735.9	1.048
373.08 K, 26470 kPa, x2 = 0.727	752.5	0.365
373.08 K, 26600 kPa, x2 = 0.727	752.7	0.365
373.08 K, 40330 kPa, x2 = 0.069	749.9	1.263
373.08 K, 40830 kPa, x2 = 0.727	773	0.424
373.08 K, 60000 kPa, x2 = 0.727	794.6	0.503
373.08 K, 60300 kPa, x2 = 0.069	762.5	1.514
373.08 K, 80110 kPa, x2 = 0.727	813.1	0.581
373.08 K, 80560 kPa, x2 = 0.069	773.5	1.794
373.08 K, 99990 kPa, x2 = 0.727	828.7	0.659
373.08 K, 100830 kPa, x2 = 0.069	783.5	2.087
373.08 K, 117640 kPa, x2 = 0.727	840.7	0.735
373.11 K, 20760 kPa, x2 = 0.5877	745.5	0.463
373.11 K, 20790 kPa, x2 = 0.5877	745.5	0.463
373.11 K, 40220 kPa, x2 = 0.5877	768.7	0.564
373.11 K, 60460 kPa, x2 = 0.5877	787.7	0.67
373.11 K, 80240 kPa, x2 = 0.5877	803.1	0.775
423.11 K, 11500 kPa, x2 = 0.069	694.2	0.574
423.11 K, 11890 kPa, x2 = 0.069	694.7	0.576
423.11 K, 21700 kPa, x2 = 0.069	705.2	0.645
423.11 K, 25910 kPa, x2 = 0.5877	708.9	0.328
423.11 K, 25970 kPa, x2 = 0.5877	709.4	0.33
423.11 K, 40190 kPa, x2 = 0.5877	730.3	0.384
423.11 K, 40710 kPa, x2 = 0.069	722.5	0.778
423.11 K, 42080 kPa, x2 = 0.727	730.1	0.296
423.11 K, 42200 kPa, x2 = 0.727	730.3	0.296
423.11 K, 60240 kPa, x2 = 0.5877	753.3	0.462
423.11 K, 60280 kPa, x2 = 0.727	755.6	0.353
423.11 K, 60590 kPa, x2 = 0.069	737.2	0.929
423.11 K, 80390 kPa, x2 = 0.727	777.7	0.412
423.11 K, 80460 kPa, x2 = 0.5877	772	0.537
423.11 K, 80740 kPa, x2 = 0.069	750	1.083
423.11 K, 100360 kPa, x2 = 0.727	795.9	0.471
423.11 K, 100800 kPa, x2 = 0.5877	787.9	0.614
423.11 K, 101550 kPa, x2 = 0.069	761.6	1.253
423.11 K, 118170 kPa, x2 = 0.5877	799.8	0.683
423.11 K, 120210 kPa, x2 = 0.727	811.4	0.529
473.15 K, 43620 kPa, x2 = 0.5877	697.7	0.293
473.15 K, 43720 kPa, x2 = 0.5877	697.7	0.292
473.15 K, 60700 kPa, x2 = 0.5877	720.7	0.343
473.15 K, 80450 kPa, x2 = 0.5877	742	0.402
473.15 K, 100840 kPa, x2 = 0.5877	760.2	0.46
473.15 K, 120610 kPa, x2 = 0.5877	775.2	0.52
473.26 K, 61090 kPa, x2 = 0.727	718.9	0.267
473.26 K, 61330 kPa, x2 = 0.727	719.1	0.268
473.26 K, 80480 kPa, x2 = 0.727	744	0.313
473.26 K, 100590 kPa, x2 = 0.727	765.1	0.36
473.26 K, 120860 kPa, x2 = 0.727	783	0.407
